The target in assay [1] is T1, PYR1 receptor-HAB1 protein phosphatase complex (Arabidopsis thaliana, UniProt O49686).
T1 construct: made in house; host or cells: E. coli BL21 (DE3)
T1 sequence (O49686 1-191): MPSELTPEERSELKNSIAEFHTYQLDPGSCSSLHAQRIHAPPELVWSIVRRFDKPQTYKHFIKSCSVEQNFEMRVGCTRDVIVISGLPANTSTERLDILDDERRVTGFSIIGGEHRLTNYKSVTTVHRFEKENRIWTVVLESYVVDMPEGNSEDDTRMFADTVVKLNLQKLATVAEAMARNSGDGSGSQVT
T1 sequence (Q9CAJ0 172-511 partner limits assumed): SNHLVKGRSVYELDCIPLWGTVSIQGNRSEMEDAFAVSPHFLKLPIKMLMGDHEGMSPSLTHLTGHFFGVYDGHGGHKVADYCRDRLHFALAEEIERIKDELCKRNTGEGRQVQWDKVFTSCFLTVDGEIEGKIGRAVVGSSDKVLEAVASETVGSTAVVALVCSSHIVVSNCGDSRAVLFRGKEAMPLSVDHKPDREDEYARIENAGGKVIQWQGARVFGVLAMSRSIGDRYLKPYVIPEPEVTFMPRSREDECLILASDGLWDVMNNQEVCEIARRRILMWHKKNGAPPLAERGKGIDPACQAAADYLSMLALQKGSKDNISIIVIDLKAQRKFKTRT
The assay is described as follows: AlphaScreen assay: promotion of PYR1 receptor binding to PP2C protein phosphatase HAB1. The following applies: 6×His-SUMO-tagged PYR1 (whole coding sequence), Biotin-tagged HAB1 (aa 172-511), 100 nM each, pH 7.4, 1.5 h room temperature. The source says: (§1) The construction method of recombinant plasmids for the Arabidopsis thaliana genes PYL1 (amino acid sequence 36-211), PYL2 (amino acid sequence 14-188) with dual tags of 6×His and SUMO sequence and the Arabidopsis thaliana gene HAB1 (amino acid sequence 172-511) with the Biotin tag sequence is described in detail in “A gate-latch-lock mechanism for hormone signaling by abscisic acid receptors” (Nature, Vol 462, 2009). The construction method of recombinant plasmids for PYR1 and PYL7 (whole gene coding sequence) and Soybean GmPYL6 and rice OsPYL2 with dual tags of 6×His and SUMO sequence is the same as that for Arabidopsis PYL2.
(§2) The above recombinant plasmid is transformed into competent cell of E. coli BL21 (DE3) (purchased from NEB company), and inoculated into 200 ml of LB liquid medium containing Amp resistance (purchased from OXOID company) and cultured overnight at 37° C. at 200 rpm; and inoculated into 2 L of LB liquid medium containing Amp resistance at a ratio of 1:50-1:100 for an extended culture, and cultured at 37° C., 200 rpm for 3-4 hours, and at a low temperature of 16° C. until OD600 is about 0.8-1.0. Recombinant plasmids for PYR1/PYL1/PYL2/PYL7/GmPYL6/OsPYL2 with dual tags of 6×His and SUMO sequence were induced overnight with 100 μM of IPTG while HAB1 recombinant plasmid with the Biotin tag sequence was induced simultaneously with 100 μM of IPTG and 40 μM of biotin.
(§3) After 16 hours of induction, the bacterial solution was centrifuged at 4000 rpm for 20 minutes at 4° C. in a low-speed high-capacity centrifuge, and the bacteria cells were collected. Bacteria cells were resuspended in 50 ml of extraction buffer (containing 20 mM Tris, pH 8.0, 200 mM NaCl and 10% (v/v) glycerol) for per 2 L of bacterial solution and then subjected to pressure-breaking at […] and 4° C. for 3-5 times. The broken cells were subjected to ultracentrifugation, centrifuged at 16000 rpm for 30 minutes, and this process was repeated twice. The supernatant was collected and subjected to an affinity chromatography column.
For PYR/PYL proteins with dual tags of 6×His and SUMO sequences, 50 ml of affinity chromatography Ni column (50 ml Ni-NTA column, available from GE) was used. Firstly, the column was equilibrated with 600 ml of 10% buffer B (containing 20 mM Tris, PH 8.0, 200 mM NaCl, 500 mM imidazole and 10% glycerol), and then eluted with 200 ml of 50% buffer B and finally eluted with 100 ml of 100% buffer B. Proteins for crystal analysis were mixed with ulp1 enzyme at a molar ratio of 1000:1 for enzymatic dialysis overnight. The digested proteins were subjected to affinity chromatography on a Ni column once more. The collected solution was subjected to a HiLoad 26/60 Superdex200 gel filtration column (commercially available from GE) and eluted with an elution solution (containing 25 mM Tris, pH 8.0, 200 mM ammonium acetate, 1 mM dithiotreitol and 1 mM EDTA) to further separate and purify the protein.
For a HAB1 protein with a Biotin tag sequence, it was subjected to a 50 ml MBP affinity column (available from GE). The column was firstly equilibrated with 600 ml of 10% buffer C (containing 20 mM Tris, pH 8.0, 200 mM NaCl, 10 mM Maltose and 10% Glycerol), and eluted with 200 ml of 50% buffer C and finally eluted with 100 ml of 100% buffer C. […]
In general terms: Bead proximity is the source of the signal in Alpha formats.

The target in assay [2] is T2, PYL1 receptor-HAB1 protein phosphatase complex (Arabidopsis thaliana, UniProt Q8VZS8).
T2 construct: made in house; host or cells: E. coli BL21 (DE3)
T2 sequence (Q8VZS8 36-211): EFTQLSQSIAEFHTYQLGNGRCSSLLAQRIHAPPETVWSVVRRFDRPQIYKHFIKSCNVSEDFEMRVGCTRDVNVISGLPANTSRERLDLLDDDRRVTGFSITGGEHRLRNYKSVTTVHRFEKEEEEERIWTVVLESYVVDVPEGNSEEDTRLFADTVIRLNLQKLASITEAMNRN
T2 sequence (Q9CAJ0 172-511 partner limits assumed): T1 sequence (Q9CAJ0 172-511 partner limits assumed)
The assay is described as follows: AlphaScreen assay: promotion of PYL1 receptor binding to PP2C protein phosphatase HAB1.
Excerpt: as §1, §2
as §3, with “column. […]” for “column.”

Assay [3] concerns the target T3, PYL7 receptor-HAB1 protein phosphatase complex (Arabidopsis thaliana, UniProt Q1ECF1).
T3 construct: made in house; host or cells: E. coli BL21 (DE3)
T3 sequence (Q1ECF1 1-211): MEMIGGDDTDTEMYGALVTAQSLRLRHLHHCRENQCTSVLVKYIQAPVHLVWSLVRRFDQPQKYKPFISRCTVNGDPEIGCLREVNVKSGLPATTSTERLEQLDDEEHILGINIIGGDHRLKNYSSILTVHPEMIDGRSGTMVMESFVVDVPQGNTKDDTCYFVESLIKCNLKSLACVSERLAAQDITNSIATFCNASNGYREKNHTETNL
T3 sequence (Q9CAJ0 172-511 partner limits assumed): T1 sequence (Q9CAJ0 172-511 partner limits assumed)
As to the kind of experiment: AlphaScreen assay: promotion of PYL7 receptor binding to PP2C protein phosphatase HAB1.
Excerpt: as §1, §2
as §3, with “column. […]” for “column.”

Setting [4] is: FIG. 2b, 6×His-SUMO-tagged PYL1 (aa 36-211), Biotin-tagged HAB1 (aa 172-511), 100 nM each, pH 7.4, 1.5 h room temperature, read-out: EC50.
Setting [5] is: FIG. 2d, 6×His-SUMO-tagged PYL7 (whole coding sequence), Biotin-tagged HAB1 (aa 172-511), 100 nM each, pH 7.4, 1.5 h room temperature, read-out: EC50.

Drawing on patent US11076597B2, “High stress resistant plant growth regulator and preparation method and use thereof” (SHANGHAI INSTITUTES FOR BIOLOGICAL SCIENCES, CHINESE …, priority 2015, dated 2021), this text covers EC50 for 3 compounds.

As usually defined, the EC50 is the concentration needed to bring the measured effect to its halfway point.

The structures appear in SMILES notation. Read-outs that look alike come from different tables or passages of the source.

`CC1=CC(=O)CC(C)(C)[C@@]1(O)/C=C/C(C)=C\C(=O)O` [ABA, Abscisic Acid, reference compound]: the EC50 was determined as 3570 nM in assay [1] (EC50, FIG. 2a); 4220 nM in assay [1] (EC50, FIG. 2h); 1200 nM in assay [2]; 1160 nM in assay [3].
As for `CCCN1C(=O)OC(C)c2cc(NS(=O)(=O)Cc3c(F)c(F)c(C)c(F)c3F)ccc21` (stereo not shown) [Compound 0224], the EC50 in assay [1] (FIG. 2a, read-out: EC50) was determined as 90.1 nM; in assay [2] (setting [4]), 149 nM; in assay [3] (setting [5]) it was 120 nM.
Consider `CCCN1C(=O)OC(C)(C)c2cc(NS(=O)(=O)Cc3c(F)c(F)c(C)c(F)c3F)ccc21` [Compound 0304], for which the EC50 is 148 nM in assay [1] (FIG. 2a, read-out: EC50); 167 nM in assay [2] (setting [4]); 120 nM in assay [3] (setting [5]).
